Entries after “also recorded” stand apart in the source; their conditions may differ.
Columns and labels:
Assay type in all cases: cell-based, human
caspase-3, -6 and -8 = test: Caspase cleavage activity of cell extracts, statements covering DEVD, VEID and IETD peptides together; settings: for protease activity on DEVD, VEID and IETD peptides, single treatment: FIG. 7: verteporfin 5 ng/ml with light, FasL 7.5 ng/ml or TRAIL 20 ng/ml alone
Procedure: (§1) The human Jurkat T cell line containing a neomycin resistance gene was obtained from Dr. Charles Rudin (University of Chicago). Cells were maintained in RPMI 1640 medium containing 10% heat-inactivated fetal calf serum (FCS) with penicillin (100 U/mL), streptomycin (100 μg/mL), 20 mM HEPES, 2 mM L-glutamine and G418 (1 μg/ml) purchased from Gibco BRL (Burlington, Ontario) in a CO2 incubator at 37° C. To elicit apoptosis with PDT, Jurkat cells were incubated with different amounts of liposomally formulated benzoporphyrin derivative monoacid ring A (BPD-MA, verteporfin, QLT PhotoTherapeutics, Inc., Vancouver, Canada) for one hour at 37° C. under light-protected conditions. The culture medium used for experiments was identical to that used for the passage of the cells except that FCS was used at a concentration of 5%. Experiments were conducted either in 6-well culture plates at 5×10^6 cells in a volume of 4 ml per well or in 96-well microtiter plates at 1×10^5 cells per well at 0.2 ml per well. Cells were irradiated with light of a wavelength of 690 nm delivered at 65-73 mW/sec from light emitting diodes (LED) to achieve a total light dose of 5 J/cm^2. Cells were returned to the incubator until required for analysis.
FasL and TRAIL as used were recombinant preparations. FasL was obtained from Upstate Biotechnology (Lake Placid NY) and corresponded to amino acids 103-281 of the soluble domain of human FasL. TRAIL was obtained from BIOMOL Research Laboratories (Plymouth Meeting, Pa.) and corresponded to residues 114-281 of the soluble domain of human TRAIL. FasL and TRAIL were usually added immediately following the treatment of cells with PDT, although in one series of experiments these factors were added at 1, 2 or 3 hours post-irradiation.
Whole cell lysates were prepared by washing 1×10^7 cells per sample twice with ice-cold PBS. Cells were disrupted with 1 mL of lysis buffer [1% Nonidet P-40 detergent (NP-40), 20 mM Tris-HCl, pH 8.0, 137 mM NaCl, 10% glycerol, 1 mM phenylmethylsulfonyl fluoride (PMSF) aprotinln (0.15 U/mL) and 1 mM sodium orthovanadate] for 20 minutes on ice. Lysates were centrifuged for 10 minutes at 15,800×g at 4° C.
These sequences are denoted by letter codes for each amino acid. To evaluate relative DEVDase (caspases 3 and 7), VEIDase (caspase 6) and IETDase (caspase 8) cleavage activity, Jurkat cell lysates were incubated with caspase-specific fluorescent substrates as described by Granville et al. (“Photodynamic therapy induces caspase-3 activation in HL-60 cells”, Cell Death Differ., 4, 623-629 (1997)). Briefly, lysates were incubated with reaction buffer (20 mM Tris pH 7.5, 137 mM NaCl, 1% NP-40, 10% glycerol) containing 100 μM of the caspase substrates Ac-DEVD-AMC (Calbiochem, Cambridge, Mass.), Ac-VEID-AMC (Calbiochem, Cambridge, Mass.), Ac-lETD-AMC (BIOMOL, Plymouth Meeting Pa.), and Ac-LEHD-AMC (Calbiochem, Cambridge, Mass.). The letter codes for the amino acid residues present within the inhibitor peptides are as following: D=aspartic acid; E=glutamic acid; H=histidine; I=isoleucine; T=threonine; V=valine. The reaction mixture was incubated at 37° C. for 1 (DEVD.AMC) or 24 (VEID.AMC and IETH.AMC) h and fluorescence was measured using an excitation at 380 nm and an emission wavelength of 460 nm with a CytoFluor™ 2350 fluorescent measuring system (Perseptive Biosystems, Burlington, Ont).

VEIDase (caspase 6) = test: Protease assay of cell extracts with Ac-VEID-AMC; settings: TRAIL 20 ng/ml, 3 hours, Jurkat whole cell extracts
Procedure: as §1, with “Cells were irradiated with light of a wavelength of 690 nm delivered at 65-73 mW/sec from light emitting diodes (LED) to achieve a total light dose of 5 J/cm^2. Cells were returned to the incubator until required for analysis.” left out
(§2) These sequences are denoted by letter codes for each amino acid. […] The reaction mixture was incubated at 37° C. for 1 (DEVD.AMC) or 24 (VEID.AMC and IETH.AMC) h and fluorescence was measured using an excitation at 380 nm and an emission wavelength of 460 nm with a CytoFluor™ 2350 fluorescent measuring system (Perseptive Biosystems, Burlington, Ont).

IETDase (caspase 8) = test: Protease assay of cell extracts with Ac-IETD-AMC; settings: TRAIL 20 ng/ml, 3 hours, Jurkat whole cell extracts
Procedure: as §1, with “Cells were irradiated with light of a wavelength of 690 nm delivered at 65-73 mW/sec from light emitting diodes (LED) to achieve a total light dose of 5 J/cm^2. Cells were returned to the incubator until required for analysis.” left out
as §2

[1] = system: DEVDase (caspases 3 and 7); test: Protease assay of cell extracts with Ac-DEVD-AMC; settings: TRAIL 20 ng/ml, 3 hours, Jurkat whole cell extracts
Procedure: as §1, with “Cells were irradiated with light of a wavelength of 690 nm delivered at 65-73 mW/sec from light emitting diodes (LED) to achieve a total light dose of 5 J/cm^2. Cells were returned to the incubator until required for analysis.” left out
as §2

| Substance | protease activity on DEVD, VEID and IETD peptides, single treatment (caspase-3, -6 and -8; 3 hours) | verteporfin concentration at which the effect of PDT on caspase activity was greatest (caspase-3, -6 and -8; light 5 J/cm^2, extracts 3 hours post-PDT) | effect of PDT alone on DEVDase-, VEIDase- and IETDase-like activity (caspase-3, -6 and -8; verteporfin and light 5 J/cm^2, no FasL or TRAIL, 3 hours post-PDT) | caspase activity compared with the treatments given independently (caspase-3, -6 and -8; FIG. 7: factor combined with PDT (verteporfin 5 ng/ml, 5 J/cm^2), 3 hours) | caspase activity compared with PDT or TRAIL applied independently (caspase-3, -6 and -8; TRAIL 20 ng/ml plus PDT, each verteporfin concentration, 3 hours) | protease activity compared with FasL or TRAIL alone (caspase-3, -6 and -8; factor plus verteporfin in the absence of light irradiation) | increase in VEIDase-like activity versus control cells (VEIDase (caspase 6)) | increase in IETDase-like activity versus control cells (IETDase (caspase 8)) | increase in DEVDase-like activity versus control cells [1] |
| --- | --- | --- | --- | --- | --- | --- | --- | --- | --- |
| benzoporphyrin derivative monoacid ring A [verteporfin, reference compound] | modestly increased | 5 ng/mL | promoted DEVDase-like, VEIDase-like and IETDase-like activity; also recorded: increased levels of DEVDase-like, VEIDase-like and IETDase-like activity |  |  |  |  |  |  |
| TRAIL: recombinant, residues 114-281 of the soluble domain of human TRAIL (BIOMOL) | modestly increased |  |  | higher caspase activity | higher | no different | two-fold | two-fold | approximately four-fold |

— patent US20030008857A1, “Photodynamic therapy (PDT) in combination with factors that bind cell surface apoptosis-inducing receptors” (priority 1999, published 2003)
